For 29 molecules, EC50 results are on record in US11236068B2, “Fused ring compounds” (Genentech, Inc., priority 2018, dated 2022).

A word on the EC50: it is the concentration needed to bring the measured effect to its halfway point. Read a high EC50 as weaker potency.

Chain of K-Ras G12C (P01116 other isoform, or with tags, fused parts or gaps G12C): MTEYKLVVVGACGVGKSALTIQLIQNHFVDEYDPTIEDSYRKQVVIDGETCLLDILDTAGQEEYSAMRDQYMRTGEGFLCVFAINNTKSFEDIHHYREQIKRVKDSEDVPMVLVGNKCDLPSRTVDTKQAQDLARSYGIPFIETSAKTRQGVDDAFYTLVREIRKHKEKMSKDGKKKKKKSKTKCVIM

The target in the assay is K-Ras G12C (Homo sapiens (Human), UniProt P01116, G12C). Nature of the assay: Western blot assay for in cell alkylation of K-Ras G12C (HCC1171 cells). The following applies: 18 hours at 37° C., 7 point dose response. In kind it is cell-based. How it is done:
HCC1171 cells were maintained in RPMI1640 supplemented with 10% FBS. Cells were plated in a 96-well plate at 20,000 cells/well and the following day compounds were added to the cells. After 18 hours at 37° C., cells were lysed in RIPA buffer (Sigma RO278) with 0.5% SDS and protease/phosphatase inhibitor cocktail. After through mixing to enable complete lysis, the lysates were cleared by centrifugation before 20 µl was transferred from each well and combined with loading buffer and reducing agent. After heating for 10 minutes at 95° C., […] of each sample was loaded onto a 4-20% Tris-Glycine gel and electrophoresed at 110V for 165 minutes in SDS-PAGE running buffer. Gels were transferred to a nitrocellulose membrane, blocked for 1 hour and stained overnight at 4° C. with primary antibody against K-Ras (polyclonal Proteintech 12063-1-AP). The membrane was then washed thoroughly and counterstained with anti-rabbit IRDye 800CW (LI-COR 926-32211) for one hour at room temperature. After final washes, the membrane was imaged on a LI-COR Odyssey CLx at medium resolution. […] To quantify this affect, the LICOR software was used to draw a rectangle over alkylated and unalkylated bands for each well and measured the total fluorescent intensity (FI) in each of these bands. The following formula was then used to calculate % alkylation: FI(alkylated)/(FI(alkylated)+FI(unalkylated))*100 for each well.
A 7 point dose response curve was used to determine the IC50 for each compound. Cell alkylation data are presented below in Table 3.
Take `C=CC(=O)N1CCN(c2ncnc3cc(-c4nc(N)cc5ccccc45)c(Cl)cc23)CC1` [Example 1, 1-[4-[7-(3-amino-1-isoquinolyl)-6-chloro-quinazolin-4-yl]piperazin-1-yl]prop-2-en-1-one]: the EC50 turned out to be 0.56 µM.

For the molecule `C=CC(=O)N1CCN(c2ncnc3cc(-c4ncccc4C)c(Cl)cc23)CC1` [Example 2, 1-[4-[6-chloro-7-(3-methyl-2-pyridyl)quinazolin-4-yl]piperazin-1-yl]prop-2-en-1-one], the response was half-maximal at 16 µM (EC50).

With `C=CC(=O)N1CCN(c2ncnc3cc(-c4nc(N)cc5cccnc45)c(Cl)cc23)CC1` [Example 3, 1-[4-[7-(6-amino-1,7-naphthyridin-8-yl)-6-chloro-quinazolin-4-yl]piperazin-1-yl]prop-2-en-1-one], the 50% effective concentration (EC50) amounted to 21 µM.

With `C=CC(=O)N1CCN(c2ncnc3cc(-c4nc(N)cc5cnccc45)c(Cl)cc23)CC1` [Example 4, 1-[4-[7-(3-amino-2,6-naphthyridin-1-yl)-6-chloro-quinazolin-4-yl]piperazin-1-yl]prop-2-en-1-one], the half-maximal effective concentration (EC50) was above 30 µM.

Turning to `C=CC(=O)N1CCN(c2ncnc3cc(-c4nc(N)cc5c(Cl)cccc45)c(Cl)cc23)CC1` [Example 5, 1-[4-[7-(3-amino-5-chloro-1-isoquinolyl)-6-chloro-quinazolin-4-yl]piperazin-1-yl]prop-2-en-1-one], the EC50 was 2.8 µM.

Turning to `C=CC(=O)N1CCN(c2ncnc3cc(-c4nc(N)cc5cc(OC)ccc45)c(Cl)cc23)CC1` [Example 6, 1-[4-[7-(3-amino-6-methoxy-1-isoquinolyl)-6-chloro-quinazolin-4-yl]piperazin-1-yl]prop-2-en-1-one], the concentration for a half-maximal effect (EC50) is 10 µM.

Molecule `C=CC(=O)N1CCN(c2ncnc3cc(-c4nc(N)cc(C)c4F)c(Cl)cc23)CC1` [Example 11, 1-(4-(7-(6-amino-3-fluoro-4-methylpyridin-2-yl)-6-chloroquinazolin-4-yl)piperazin-1-yl)prop-2-en-1-one] showed a concentration giving a half-maximal response (EC50) of 4.7 µM.

In turn, `C=CC(=O)N1CCN(c2nc(NC[C@@H](F)C(C)(C)O)nc3cc(-c4nc(N)cc(C)c4F)c(Cl)cc23)CC1` [Example 12, (R)-1-(4-(7-(6-amino-3-fluoro-4-methylpyridin-2-yl)-6-chloro-2-((2-fluoro-3-hydroxy-3-methylbutyl)amino)quinazolin-4-yl)piperazin-1-yl)prop-2-en-1-one] gave a 50% effective concentration (EC50) of 8.1 µM.

As for `C=CC(=O)N1CCN(c2ncnc3cc(-c4nc(N)cc(C)c4C)c(Cl)cc23)CC1` [Example 13, 1-(4-(7-(6-amino-3,4-dimethylpyridin-2-yl)-6-chloroquinazolin-4-yl)piperazin-1-yl)prop-2-en-1-one], the EC50 turned out to be 1.3 µM.

Take `C=CC(=O)N1CCN(c2ncnc3cc(-c4nc(N)cc(C)c4Cl)c(Cl)cc23)CC1` [Example 14, 1-(4-(7-(6-amino-3-chloro-4-methylpyridin-2-yl)-6-chloroquinazolin-4-yl)piperazin-1-yl)prop-2-en-1-one]: the half-maximal effective concentration (EC50) is 0.4 µM.

Turning to `C=CC(=O)N1CCN(c2ncnc3cc(-c4nc(N)ccc4C)c(Cl)cc23)CC1` [Example 15, 1-(4-(7-(6-amino-3-methylpyridin-2-yl)-6-chloroquinazolin-4-yl)piperazin-1-yl)prop-2-en-1-one], the half-maximal effective concentration (EC50) amounted to 2.8 µM.

In turn, `C=CC(=O)N1CCN(c2ncnc3cc(-c4nc(NC(C)=O)ccc4C)c(Cl)cc23)CC1` [Example 16, N-(6-[6-chloro-4-[4-(prop-2-enoyl)piperazin-1-yl]quinazolin-7-yl]-5-methylpyridin-2-yl)acetamide] displayed an EC50 of 8.2 µM.

Molecule `C=CC(=O)N1CCN(c2ncnc3cc(-c4nc(N)ccc4C(F)(F)F)c(N4CCC4)cc23)CC1` [Example 20, 1-[4-[7-[6-amino-3-(trifluoromethyl)-2-pyridyl]-6-(azetidin-1-yl)quinazolin-4-yl]piperazin-1-yl]prop-2-en-1-one] came in with a concentration giving a half-maximal response (EC50) of 2.3 µM.

In turn, `C=CC(=O)N1CCN(c2ncnc3cc(-c4nc(N)ccc4C(F)(F)F)c(C(C)(F)F)cc23)CC1` [Example 21, 1-(4-(7-(6-amino-3-(trifluoromethyl)pyridin-2-yl)-6-(1,1-difluoroethyl)quinazolin-4-yl)piperazin-1-yl)prop-2-en-1-one] gave a half-maximal effective concentration (EC50) of 2.8 µM.

In turn, `C=CC(=O)N1CCC(C#N)(c2ncnc3cc(-c4nc(N)cc(C)c4C(F)(F)F)c(Cl)cc23)CC1` [Example 22, 4-[7-[6-amino-4-methyl-3-(trifluoromethyl)-2-pyridyl]-6-chloro-quinazolin-4-yl]-1-prop-2-enoyl-piperidine-4-carbonitrile] displayed an EC50 of 2.9 µM.

Molecule `Cc1cc(N)nc(-c2cc3ncnc(N4CCN(C(=O)C5=CCC5)C(C#N)C4)c3cc2Cl)c1C(F)(F)F` (centres unmarked) [Example 23, 4-[7-[6-amino-4-methyl-3-(trifluoromethyl)-2-pyridyl]-6-chloro-quinazolin-4-yl]-1-(cyclobutene-1-carbonyl)piperazine-2-carbonitrile] displayed an EC50 of 0.91 µM.

Take `Cc1cc(N)nc(-c2cc3ncnc(N4CCN(C(=O)C5CO5)C(C#N)C4)c3cc2Cl)c1C(F)(F)F` (centres unmarked) [Example 24, 4-[7-[6-amino-4-methyl-3-(trifluoromethyl)-2-pyridyl]-6-chloro-quinazolin-4-yl]-1-(oxirane-2-carbonyl)piperazine-2-carbonitrile]: the midpoint of the response, the EC50, lay at 6.3 µM.

The molecule `C=CC(=O)N1CCN(c2ncnc3cc(-c4nc(N)ccc4C(F)(F)F)c(Cl)cc23)CC1C(F)(F)F` (centres unmarked) [Example 25, 1-[4-[7-[6-amino-3-(trifluoromethyl)-2-pyridyl]-6-chloro-quinazolin-4-yl]-2-(trifluoromethyl)piperazin-1-yl]prop-2-en-1-one] yielded a concentration for a half-maximal effect (EC50) of 4.2 µM.

Take `C=C(F)C(=O)N1CCN(c2ncnc3cc(-c4nc(N)cc(C)c4C(F)(F)F)c(Cl)cc23)CC1` [Example 26, 1-(4-[7-[6-amino-4-methyl-3-(trifluoromethyl)pyridin-2-yl]-6-chloroquinazolin-4-yl]piperazin-1-yl)-2-fluoroprop-2-en-1-one]: a half-maximal response (EC50) required 0.14 µM.

In the case of `C=CC(=O)N1CCN(c2ncnc3c(F)c(-c4nc(N)cc5cccc(F)c45)c(Cl)cc23)CC1` [Example 27, 1-[4-[7-(3-amino-8-fluoro-1-isoquinolyl)-6-chloro-8-fluoro-quinazolin-4-yl]piperazin-1-yl]prop-2-en-1-one], the concentration for a half-maximal effect (EC50) came to 0.14 µM.

With `C=CC(=O)N1CCN(c2ncnc3cc(-c4nc(N)ccc4C(F)(F)F)c(C4CC4)cc23)CC1` [Example 29, 1-[4-[7-[6-amino-3-(trifluoromethyl)-2-pyridyl]-6-cyclopropyl-quinazolin-4-yl]piperazin-1-yl]prop-2-en-1-one], the response was half-maximal at 0.83 µM (EC50).

As to `C=CC(=O)N1CCN(c2nc(C(F)(F)F)nc3cc(-c4nc(N)cc(C)c4C(F)(F)F)c(Cl)cc23)CC1` [Example 30, 1-(4-[7-[6-amino-4-methyl-3-(trifluoromethyl)pyridin-2-yl]-6-chloro-2-(trifluoromethyl)quinazolin-4-yl]piperazin-1-yl)prop-2-en-1-one], the concentration giving a half-maximal response (EC50) came to 7.8 µM.

`C=CC(=O)N1CCN(c2nc(NC)nc3cc(-c4nc(N)cc(C)c4C(F)(F)F)c(Cl)cc23)CC1` [Example 31, 1-(4-[7-[6-amino-4-methyl-3-(trifluoromethyl)pyridin-2-yl]-6-chloro-2-(methylamino)quinazolin-4-yl]piperazin-1-yl)prop-2-en-1-one] yielded a concentration for a half-maximal effect (EC50) of 0.2 µM.

With `C=CC(=O)N1CCN(c2nc(C)nc3cc(-c4nc(N)cc(C)c4C(F)(F)F)c(Cl)cc23)CC1` [Example 32, 1-(4-[7-[6-amino-4-methyl-3-(trifluoromethyl)pyridin-2-yl]-6-chloro-2-methylquinazolin-4-yl]piperazin-1-yl)prop-2-en-1-one], a half-maximal response (EC50) required 0.2 µM.

For `C=CC(=O)N1CCN(c2ncnc3cc(-c4nc(N)cc(C(F)(F)F)c4C)c(Cl)cc23)CC1` [Example 33, 1-(4-[7-[6-amino-3-methyl-4-(trifluoromethyl)pyridin-2-yl]-6-chloroquinazolin-4-yl]piperazin-1-yl)prop-2-en-1-one], the EC50 worked out at 2.1 µM.

In the case of `C=CC(=O)N1CCN(c2ncnc3cc(-c4nc(N)cc(C5CC5)c4C(F)(F)F)c(Cl)cc23)CC1` [Example 34, 1-(4-(7-(6-amino-4-cyclopropyl-3-(trifluoromethyl)pyridin-2-yl)-6-chloroquinazolin-4-yl)piperazin-1-yl)prop-2-en-1-one], a half-maximal response (EC50) required 3.4 µM.

Molecule `C=CC(=O)N1CCN(c2ncnc3cc(-c4nc(N)ccc4C(F)(F)F)c(Cl)cc23)CC1` [Example 35, 1-(4-[7-[6-amino-3-(trifluoromethyl)pyridin-2-yl]-6-chloroquinazolin-4-yl]piperazin-1-yl)prop-2-en-1-one] came in with a concentration giving a half-maximal response (EC50) of 0.45 µM.

`C=CC(=O)N1CCN(c2ncnc3cc(-c4nc(NC(=O)C5CC5)cc5ccccc45)c(Cl)cc23)CC1` [Example 36, N-(1-(4-(4-acryloylpiperazin-1-yl)-6-chloroquinazolin-7-yl)isoquinolin-3-yl)cyclopropanecarboxamide]: the 50% effective concentration (EC50) was 5.5 µM.

Molecule `C=CC(=O)N1CCN(c2ncnc3cc(-c4nc(NCC#N)cc5ccccc45)c(Cl)cc23)CC1` [Example 39, 2-[(1-[6-chloro-4-[4-(prop-2-enoyl)piperazin-1-yl]quinazolin-7-yl]isoquinolin-3-yl)amino]acetonitrile] gave an EC50 of 10 µM.
